# Assay results published in PMC4588179, “Antifungal Activity of 14-Helical β-Peptides against Planktonic Cells and Biofilms of Candida Species” (Pharmaceuticals, 2015).
# Experiments:
# [1] = tested on: C. glabrata 5376; assay: Planktonic antifungal susceptibility (modified CLSI, XTT end point); assay type: cell-based, Candida glabrata; settings: 10^3 cells/mL, RPMI, 35 °C, 48 h, XTT (A490), <10% metabolic activity, at least two independent days, three replicates each
# Protocol: (§1) C. albicans strains SC5314 and ATCC 90028 were purchased from ATCC. C. albicans K1, C. glabrata 5376, C. parapsilosis 5986 and C. tropicalis 98-234 are clinical isolates from invasive candidiasis and were generously donated by the Andes group (University of Wisconsin-Madison). K1 is fluconazole resistant. All strains were stored as a 50% glycerol stock at −80 °C and grown in a liquid YPD media. For planktonic susceptibility testing, cells were grown on agar plates at 30 °C for 24 h and 2–3 colonies were used for the cell inoculum. For spheroplast formation and biofilm susceptibility testing assays, cells were grown overnight in YPD at 30 °C. RPMI (with L-glutamine and phenol red buffered with 3-(N-morpholino) propanesulfonic acid and adjusted to pH 7.0) was the media used for all susceptibility tests. XTT solution for assessing metabolic activity was prepared at 0.5 g/L in PBS with 3 μM menadione in acetone and pH adjusted to 7.4.
# (§2) The antifungal activities of the β-peptides against C. albicans, C. glabrata, C. parapsilosis, C. tropicalis cells were assayed in accordance to the guidelines for planktonic susceptibility testing provided by the Clinical and Laboratory Standards Institute, but with a modification to include a quantitative XTT cell metabolic activity end-point. […] After 48 h, the MICs were recorded visually as the first well that […] and by using an XTT metabolic assay. […]
# [2] = tested on: C. tropicalis 98-234; assay: as above; assay type: cell-based, Candida tropicalis; settings: 10^3 cells/mL, RPMI, 35 °C, 48 h, XTT (A490), <10% metabolic activity, at least two independent days, three replicates each
# Protocol: as §1, §2
# [3] = tested on: C. parapsilosis 5986; assay: as above; assay type: cell-based, Candida parapsilosis; settings: 10^3 cells/mL, RPMI, 35 °C, 48 h, XTT (A490), <10% metabolic activity, at least two independent days, three replicates each
# Protocol: as §1, §2
# [4] = RP-HPLC retention time as measure of β-peptide hydrophobicity; assay type: physicochemical; settings: chromatographic, analytical RP-HPLC, C18 (Waters X-bridge, 4.6 mm × 250 mm), gradient 20%–80% CH3CN in water with 0.1% TFA over 5–35 min, 1 mL/minute, 0.5 to 1 mg/mL, 50 µL injected; mean ± standard deviation of triplicate measurements
# Source text: β-peptides were produced by microwave-assisted Fmoc synthesis at 20−40 μmol scales and purified by RP-HPLC using a C18 column. MALDI mass spectrometry was used to validate the mass of each peptide as described previously. Retention times determined by C18 RP-HPLC were used as a measure of the relative hydrophobicity of the β-peptides (Table 1). This approach has been used previously by our group and others to assess the relative hydrophobicity of different peptide structures. Preliminary antifungal activity and mammalian toxicity evaluation were reported previously for β-peptides 1–16 as planktonic MIC against C. albicans and percent hemolysis at the MIC, respectively.
# Hydrophobicity of 14-helical β-peptides was characterized by measuring retention times with an analytical RP-HPLC using a C18 column (Waters, X-bridge, column dimensions 4.6 mm × 250 mm, Milford, MA, USA). The β-peptide solutions (0.5 to 1 mg/mL, 50 µL) were injected into the HPLC at a flow rate of 1 mL/minute. Retention time was characterized in triplicate with a gradient of 20%–80% CH3CN in water containing 0.1% TFA over 5–35 min.
# [5] = tested on: human red blood cells (hRBCs); assay: Hemolysis of human red blood cells; assay type: cell-based; settings: hRBCs, 2-fold dilutions in tris-buffered saline, an hour at 37 °C, absorbance 405 nm, relative to positive lysis control; average ± standard deviation of three independent experiments of duplicates each
# Protocol: Table S1. Hemolysis of β-peptide 1-16, concentration of β-peptid e needed for 50% lysis of human red blood cells (hRBCs)
# Peptide # Peptide Concentration at 50% Hemolysis a (HC50, µg/mL) […]
# a Hemolysis assays were perfor med as previously indicated in Lee, M.R. et al., ACS Chem. Biol. (2014). Briefly, equal volumes of 2-fold dilutions of β-peptides in tris-buffered saline (TBS) were incubated with hRBCs for an hour at 37 °C. Supernatants were transferred to a new plate and absorbance was measured at 405 nm.
# % hemolysis was calculated relative to positive lysis control and the concentration of peptide needed for 50% hemolysis was recorded as HC50 for that peptide. Values reported are average measurements from three independent experiments of duplicates each and the error denoted is the standard deviation. Concentration dependent hemolysis graphs can be found in Lee, M.R. et al., ACS Chem. Biol. (2014).
structure (smiles),measurement,setting,value
CC(C)[C@@H](CC(=O)N[C@@H](CCCCN)CC(N)=O)NC(=O)[C@H]1CCCC[C@@H]1NC(=O)C[C@H](CCCCN)NC(=O)C[C@@H](NC(=O)[C@H]1CCCC[C@@H]1NC(=O)C[C@H](CCCCN)NC(=O)C[C@@H](NC(=O)[C@H]1CCCC[C@@H]1N)C(C)C)C(C)C [Peptide 4],"MIC, C. glabrata",[1],32 mg/L
same,"MIC, C. tropicalis",[2],4 mg/L
same,"MIC, C. parapsilosis",[3],16 mg/L
same,"Hydrophobicity (HPLC Retention Time, min)",[4],24.5 ± 0.2 min
same,Peptide Concentration at 50% Hemolysis (HC50),[5],161 ± 40 µg/mL
